Results: US20040242591A1, “Oxazolidinone derivatives as pontential antimicrobials” (priority 2001, published 2004)

Tests used:
[1] = test system: S.aureus ATCC 25923; test: MIC by agar incorporation method, S.aureus 25923; assay type: cell-based, Staphylococus aureus; parameters: unit not given here; conditions: Mueller Hinton agar, 10^4 CFU/spot, 18 hours
[2] = test system: MRSA 15187; test: MIC by agar incorporation method, MRSA 15187; assay type: cell-based, Methicillin Resistant Staphylococcus aureus; parameters: unit not given here; conditions: Mueller Hinton agar, 10^4 CFU/spot, 24 hours
Source text: 2) MRSA 15187—Methicillin Resistant Staphylococcus aureus

[3] = test system: MRSA 562; test: MIC by agar incorporation method, MRSA 562; assay type: cell-based, Methicillin Resistant Staphylococcus aureus; parameters: unit not given here; conditions: Mueller Hinton agar, 10^4 CFU/spot, 24 hours
[4] = test system: MRSA 33; test: MIC by agar incorporation method, MRSA 33; assay type: cell-based, Methicillin Resistant Staphylococcus aureus; parameters: unit not given here; conditions: Mueller Hinton agar, 10^4 CFU/spot, 24 hours
[5] = test system: Ent. faecalis ATCC 29212; test: MIC by agar incorporation method, E.faecalis 29212; assay type: cell-based, Enterococcus faecalis; parameters: unit not given here; conditions: Mueller Hinton agar, 10^4 CFU/spot, 18 hours
Source text: 3) Ent. faecalis ATCC 29212—Enterococcus faecalis ATCC 29212

[6] = test system: VRE 6A; test: MIC by agar incorporation method, VRE 6A; assay type: cell-based, Enterococcus faecium; parameters: unit not given here; conditions: Mueller Hinton agar, 10^4 CFU/spot, 18 hours
Source text: 4) Ent. faecium […]—Enterococcus faecium 6A Van®, Cipro®

[7] = test system: Strep.pyog. ATCC 19615; test: MIC by agar incorporation method, S.pyogenes 19615; assay type: cell-based, Streptococcus pyogenes; parameters: unit not given here; conditions: Mueller Hinton agar, 10^4 CFU/spot, 18 hours
Source text: 6) Strep.pyog. ATCC 19615—Streptococcus pyogenes

[8] = test system: Strep. pne. ATCC 6303; test: MIC by agar incorporation method, S. pneum 6303; assay type: cell-based, Streptococcus pneumoniae; conditions: Mueller Hinton agar, 10^4 CFU/spot, 18 hours
Source text: 5) Strep. pne. ATCC 6303—Streptococcus pneumoniae ATCC 6303

[9] = test system: S. pneum AB 34; test: MIC by agar incorporation method, S. pneum AB 34; assay type: cell-based, Streptococcus pneumoniae; parameters: unit not given here; conditions: Mueller Hinton agar, 10^4 CFU/spot, 18 hours

In the case of `CC(=O)NC[C@H]1CN(c2ccc(N3CCN(C(=O)c4ccc([N+](=O)[O-])s4)CC3C)c(F)c2)C(=O)O1` (stereo partly drawn) [Compound No. 60, (S)-N-[[3-[3-Fluoro-4-[N-1-[2-methyl-4-{2-thiophenoyl-(5-nitro)}]-piperazinyl]phenyl]-2-oxo-5-oxazolidinyl]methyl]acetamide], the “In Vitro (MIC) S.aureus 25923” value [1] was 0.25, the “In Vitro (MIC) MRSA 15187” value [2] was less than 0.125 and the “In Vitro (MIC) MRSA 562” value [3] was less than 0.125. For the same molecule, the “In Vitro (MIC) MRSA 33” value [4] was less than 0.125, the “In Vitro (MIC) E.faecalis 29212” value [5] was 1 and the “In Vitro (MIC) VRE 6A” value [6] was 1. For the same molecule, the “In Vitro (MIC) S.pyogenes 19615” value [7] was 0.5, the “In Vitro (MIC) S. pneum 6303” value [8] was 4 µg/mL and the “In Vitro (MIC) S. pneum AB 34” value [9] was 4.

In the case of `CC(=O)NC[C@H]1CN(c2ccc(N3CCC(NCc4ccc([N+](=O)[O-])s4)CC3)c(F)c2)C(=O)O1` [Compound No. 84, (S)-N-[[3-[3-Fluoro-4-[4-{N-thienyl-(5-nitro)methyl}-aminopiperidine-1-yl]phenyl]-2-oxo-5-oxazolidinyl]methyl]acetamide], the “In Vitro (MIC) S.aureus 25923” value [1] was 2, the “In Vitro (MIC) MRSA 15187” value [2] was 2 and the “In Vitro (MIC) MRSA 562” value [3] was 2. For the same molecule, the “In Vitro (MIC) MRSA 33” value [4] was 2, the “In Vitro (MIC) E.faecalis 29212” value [5] was 1 and the “In Vitro (MIC) VRE 6A” value [6] was 2. The “In Vitro (MIC) S.pyogenes 19615” value [7] was 1, the “In Vitro (MIC) S. pneum 6303” value [8] was 2 µg/mL and the “In Vitro (MIC) S. pneum AB 34” value [9] was 2.

For `CC(=O)NC[C@H]1CN(c2ccc(N3CCN(Cc4cc([N+](=O)[O-])cs4)CC3)c(F)c2)C(=O)O1` [Compound No. 14, (S)-N-[[3-[3-Fluoro-4-[N-1-[4-{2-thiophen-(4-nitro-)methyl-}]piperazinyl]phenyl]-2-oxo-5-oxazolidinyl]methyl]acetamide], the “In Vitro (MIC) S.aureus 25923” value [1] was 0.25, the “In Vitro (MIC) MRSA 15187” value [2] was 0.25 and the “In Vitro (MIC) MRSA 562” value [3] was 0.25. For the same molecule, the “In Vitro (MIC) MRSA 33” value [4] was 0.25, the “In Vitro (MIC) E.faecalis 29212” value [5] was 4 and the “In Vitro (MIC) VRE 6A” value [6] was 2. The “In Vitro (MIC) S.pyogenes 19615” value [7] was 0.5, the “In Vitro (MIC) S. pneum 6303” value [8] was 2 µg/mL and the “In Vitro (MIC) S. pneum AB 34” value [9] was 1.

With `CC(=O)NC[C@H]1CN(c2ccc(N3C(C)CN(C(=O)c4ccco4)CC3C)c(F)c2)C(=O)O1` (stereo partly drawn) [Compound No. 61, (S)-N-[[3-[3-Fluoro-4-[N-1-[2,6-dimethyl-4-{2-furoyl-}]-piperazinyl]phenyl]-2-oxo-5-oxazolidinyl]methyl]acetamide] the “In Vitro (MIC) S.aureus 25923” value [1] was 4, the “In Vitro (MIC) MRSA 15187” value [2] was 4 and the “In Vitro (MIC) MRSA 562” value [3] was 4. For the same molecule, the “In Vitro (MIC) MRSA 33” value [4] was 4, the “In Vitro (MIC) E.faecalis 29212” value [5] was 4 and the “In Vitro (MIC) VRE 6A” value [6] was 4. The “In Vitro (MIC) S.pyogenes 19615” value [7] was 2, the “In Vitro (MIC) S. pneum 6303” value [8] was 2 µg/mL and the “In Vitro (MIC) S. pneum AB 34” value [9] was 2.

In the case of `CC(=O)NC[C@H]1CN(c2ccc(N3CCCN(Cc4ccc([N+](=O)[O-])o4)CC3)c(F)c2)C(=O)O1` [Compound No. 52, (S)-N-[[3-[3-Fluoro-4-[N-1-[4-{2-furyl(5-nitro)methyl}]homopiperazinyl]phenyl]-2-oxo-5-oxazolidinyl]methyl]acetamide], the “In Vitro (MIC) S.aureus 25923” value [1] was 2, the “In Vitro (MIC) MRSA 15187” value [2] was 2 and the “In Vitro (MIC) MRSA 562” value [3] was 1. The “In Vitro (MIC) MRSA 33” value [4] was 2, the “In Vitro (MIC) E.faecalis 29212” value [5] was 2 and the “In Vitro (MIC) VRE 6A” value [6] was 2. The “In Vitro (MIC) S.pyogenes 19615” value [7] was 1, the “In Vitro (MIC) S. pneum 6303” value [8] was 1 µg/mL and the “In Vitro (MIC) S. pneum AB 34” value [9] was 4.

With `CC(=O)NC[C@H]1CN(c2ccc(N3CCN(Cc4ccc([N+](=O)[O-])[nH]4)CC3)c(F)c2)C(=O)O1` [Compound No. 13, (S)-N-[[3-[3-Fluoro-4-[N-1-[4-{2-pyrrole-(5-nitro)methyl}]piperazinyl]phenyl]-2-oxo-5-oxazolidinyl]methyl]acetamide] the “In Vitro (MIC) S.aureus 25923” value [1] was 4, the “In Vitro (MIC) MRSA 15187” value [2] was 2 and the “In Vitro (MIC) MRSA 562” value [3] was 4. The “In Vitro (MIC) MRSA 33” value [4] was 4, the “In Vitro (MIC) E.faecalis 29212” value [5] was 4 and the “In Vitro (MIC) VRE 6A” value [6] was 4. For the same molecule, the “In Vitro (MIC) S.pyogenes 19615” value [7] was 1, the “In Vitro (MIC) S. pneum 6303” value [8] was 4 µg/mL and the “In Vitro (MIC) S. pneum AB 34” value [9] was 4.
